A word on the IC50: it is the concentration that gives 50% inhibition.

Chain of recombinant CD73 (P21589 27-547): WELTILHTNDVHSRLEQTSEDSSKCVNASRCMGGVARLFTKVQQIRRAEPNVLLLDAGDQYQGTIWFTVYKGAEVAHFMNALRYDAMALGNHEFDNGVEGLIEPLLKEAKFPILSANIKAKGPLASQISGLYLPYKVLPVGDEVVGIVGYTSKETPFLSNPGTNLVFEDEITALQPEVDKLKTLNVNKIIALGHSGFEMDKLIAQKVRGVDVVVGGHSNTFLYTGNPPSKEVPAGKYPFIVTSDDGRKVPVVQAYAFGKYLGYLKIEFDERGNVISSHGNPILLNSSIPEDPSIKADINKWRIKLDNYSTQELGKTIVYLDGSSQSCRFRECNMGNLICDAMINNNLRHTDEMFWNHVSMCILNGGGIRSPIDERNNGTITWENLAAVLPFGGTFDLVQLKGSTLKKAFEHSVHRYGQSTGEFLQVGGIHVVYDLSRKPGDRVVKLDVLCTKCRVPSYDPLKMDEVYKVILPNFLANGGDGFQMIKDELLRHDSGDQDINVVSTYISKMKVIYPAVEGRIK

This experiment has as its target recombinant CD73 (Homo sapiens (Human), UniProt P21589). The experiment is described as follows: Assay 1: Inhibition of the CD73 enzyme in vitro (0.5 nM CD73, 30 min room temperature, Malachite Green). Type of experiment: biochemical. The conditions noted are these: 0.5 nM CD73, 30 minutes at room temperature. Here is the method:
For measurements of soluble CD73 enzyme activity, recombinant CD73 was obtained from R&D Systems, Cat. No. 5795-EN-010. […] Reactions were allowed to proceed for 30 minutes at room temperature before the addition of 100 μL Malachite Green (Cell Signaling Technology, Cat. No. 12776). After 5 minutes at room temperature, absorbance at 630 nm was determined on a microplate spectrophotometer. The concentration of inorganic phosphate was determined using a phosphate standard curve.
For `C[C@@]1(O)[C@@H](COP(=O)(O)CP(=O)(O)O)O[C@@H](n2cnc3c(NCc4ccccc4)nc(Cl)nc32)[C@@H]1O` [Example 205, (((((2R,3S,4R,5R)-5-(6-(benzylamino)-2-chloro-9H-purin-9-yl)-3,4-dihydroxy-3-methyltetrahydrofuran-2-yl)methoxy)(hydroxy)phosphoryl)methyl)phosphonic acid], the IC50 came out at 12 nM.

As to `C#C[C@@]1(O)[C@@H](COC(Cc2ccsc2)(C(=O)O)C(=O)O)O[C@@H](n2cnc3c(N)nc(Cl)nc32)[C@@H]1O` [Example 24, 2-(((2R,3S,4R,5R)-5-(6-amino-2-chloro-9H-purin-9-yl)-3-ethynyl-3,4-dihydroxytetrahydrofuran-2-yl)methoxy)-2-(thiophen-3-ylmethyl)malonic acid], the 50% inhibitory concentration (IC50) was 1.8 nM.

Consider `C#C[C@@]1(O)[C@@H](COC(C(=O)O)c2cscn2)O[C@@H](n2cnc3c(N)nc(Cl)nc32)[C@@H]1O` (stereo partly drawn) [Example 179, 2-(((2R,3S,4R,5R)-5-(6-amino-2-chloro-9H-purin-9-yl)-3-ethynyl-3,4-dihydroxytetrahydrofuran-2-yl)methoxy)-2-(thiazol-4-yl)acetic acid], for which the IC50 was determined as 320 nM.

As for `C[C@@]1(O)[C@@H](CO[C@@](Cc2ccc(-c3ccccc3)cc2)(C(=O)O)c2cscn2)O[C@@H](n2cnc3c(N)nc(Cl)nc32)[C@@H]1O` (single isomer, unassigned) [Example 199], the IC50 was determined as 5760 nM.

On to `CC[C@@]1(O)[C@@H](COC(C(=O)O)C(=O)O)O[C@@H](n2cnc3c(N)nc(Cl)nc32)[C@@H]1O` [Example 55, 2-(((2R,3S,4R,5R)-5-(6-amino-2-chloro-9H-purin-9-yl)-3-ethyl-3,4-dihydroxytetrahydrofuran-2-yl)methoxy)malonic acid], for which the IC50 came out at 35 nM.

Regarding `C#C[C@@]1(O)[C@@H](CO[C@H](C(=O)O)c2csc(-c3ccccc3)n2)O[C@@H](n2cnc3c(N)nc(Cl)nc32)[C@@H]1O` (single isomer, unassigned) [Example 193], the 50% inhibitory concentration (IC50) stood at 263 nM.

Turning to `C[C@@]1(O)[C@@H](COC(Cc2ccc(-c3ccccc3C(=O)O)cc2)(C(=O)O)c2nnn[nH]2)O[C@@H](n2cnc3c(N)nc(Cl)nc32)[C@@H]1O` (stereo partly drawn) [Example 201, 4′-(2-(((2R,3S,4R,5R)-5-(6-amino-2-chloro-9H-purin-9-yl)-3,4-dihydroxy-3-methyltetrahydrofuran-2-yl)methoxy)-2-carboxy-2-(1H-tetrazol-5-yl)ethyl)-[1,1′-biphenyl]-2-carboxylic acid], the IC50 was found to be 204 nM.

For the compound `Nc1nc(Cl)nc2c1ncn2[C@@H]1O[C@H](COC(C(=O)O)C(=O)O)[C@](O)(C#Cc2cc[nH]n2)[C@H]1O` [Example 27, 2-(((2R,3S,4R,5R)-3-((1H-pyrazol-3-yl)ethynyl)-5-(6-amino-2-chloro-9H-purin-9-yl)-3,4-dihydroxytetrahydrofuran-2-yl)methoxy)malonic acid], the IC50 turned out to be 18 nM.

For the compound `C#C[C@@]1(O)[C@@H](COP(=O)(O)CP(=O)(O)O)O[C@@H](n2cnc3c(NCc4ccccc4)nc(Cl)nc32)[C@@H]1O` [Example 203, (((((2R,3S,4R,5R)-5-(6-(benzylamino)-2-chloro-9H-purin-9-yl)-3-ethynyl-3,4-dihydroxytetrahydrofuran-2-yl)methoxy)(hydroxy)phosphoryl)methyl)phosphonic acid], the IC50 was found to be 4.2 nM.

Take `C#C[C@@]1(O)[C@@H](COC(Cc2cccc(OC(F)(F)F)c2)(C(=O)O)C(=O)O)O[C@@H](n2cnc3c(N)nc(Cl)nc32)[C@@H]1O` [Example 23, 2-(((2R,3S,4R,5R)-5-(6-amino-2-chloro-9H-purin-9-yl)-3-ethynyl-3,4-dihydroxytetrahydrofuran-2-yl)methoxy)-2-(3-(trifluoromethoxy)benzyl)malonic acid]: the IC50 was found to be 5 nM.

In the case of `C#C[C@@]1(O)[C@@H](COC(Cc2cccc(C(F)(F)F)c2)(C(=O)O)C(=O)OCC)O[C@@H](n2cnc3c(N)nc(Cl)nc32)[C@@H]1O` (stereo partly drawn) [Example 49, 2-(((2R,3S,4R,5R)-5-(6-amino-2-chloro-9H-purin-9-yl)-3-ethynyl-3,4-dihydroxytetrahydrofuran-2-yl)methoxy)-3-ethoxy-3-oxo-2-(3-(trifluoromethyl)-benzyl)propanoic acid], the IC50 stood at 273 nM.

Turning to `C#C[C@@]1(O)[C@@H](COP(=O)(O)CP(=O)(O)O)O[C@@H](n2cnc3c(N)nc(Cl)nc32)[C@@H]1O` [Example 202, (((((2R,3S,4R,5R)-5-(6-amino-2-chloro-9H-purin-9-yl)-3-ethynyl-3,4-dihydroxytetrahydrofuran-2-yl)methoxy)(hydroxy)phosphoryl)methyl)phosphonic acid], the IC50 was 148 nM.

On to `C#CCC(OC[C@H]1O[C@@H](n2cnc3c(N)nc(Cl)nc32)[C@H](O)[C@@]1(O)C#C)(C(=O)O)C(=O)O` [Example 25, 2-(((2R,3S,4R,5R)-5-(6-amino-2-chloro-9H-purin-9-yl)-3-ethynyl-3,4-dihydroxytetrahydrofuran-2-yl)methoxy)-2-(prop-2-yn-1-yl)malonic acid], for which the IC50 was 7 nM.

Consider `C#C[C@@]1(O)[C@@H](CO[C@](Cc2ccccc2)(C(=O)O)c2cscn2)O[C@@H](n2cnc3c(N)nc(Cl)nc32)[C@@H]1O` (single isomer, unassigned) [Example 180], for which the 50% inhibitory concentration (IC50) was found to be 9 nM.

As to `C#C[C@@]1(O)[C@@H](COC(C(N)=O)C(N)=O)O[C@@H](n2cnc3c(NC4CCCC4)nc(Cl)nc32)[C@@H]1O` [Example 116, 2-(((2R,3S,4R,5R)-5-(2-chloro-6-(cyclopentylamino)-9H-purin-9-yl)-3-ethynyl-3,4-dihydroxytetrahydrofuran-2-yl)methoxy)malonamide], the IC50 is 8050 nM.

As for `C#C[C@@]1(O)[C@@H](CO[C@](C#N)(Cc2ccccc2)C(=O)O)O[C@@H](n2cnc3c(N)nc(Cl)nc32)[C@@H]1O` (single isomer, unassigned) [Example 189], the concentration for half-maximal inhibition (IC50) is 1850 nM.

With `Nc1nc(Cl)nc2c1ncn2[C@@H]1O[C@H](COC(C(=O)O)C(=O)O)[C@](O)(C#Cc2ccn(Cc3ccccc3)n2)[C@H]1O` [Example 28, 2-(((2R,3S,4R,5R)-5-(6-amino-2-chloro-9H-purin-9-yl)-3-((1-benzyl-1H-pyrazol-3-yl)ethynyl)-3,4-dihydroxytetrahydrofuran-2-yl)methoxy)malonic acid], the IC50 came to 3 nM.

Take `C#C[C@@]1(O)[C@@H](COC(C(=O)O)C(=O)N2CCCC2)O[C@@H](n2cnc3c(N)nc(Cl)nc32)[C@@H]1O` (stereo partly drawn) [Example 113, 2-(((2R,3S,4R,5R)-5-(6-amino-2-chloro-9H-purin-9-yl)-3-ethynyl-3,4-dihydroxytetrahydrofuran-2-yl)methoxy)-3-oxo-3-(pyrrolidin-1-yl)propanoic acid]: the IC50 came to 331 nM.

In the case of `C#C[C@@]1(O)[C@@H](COCP(=O)(O)O)O[C@@H](n2cnc3c(NCc4ccccc4)nc(Cl)nc32)[C@@H]1O` [Example 204, ((((2R,3S,4R,5R)-5-(6-(benzylamino)-2-chloro-9H-purin-9-yl)-3-ethynyl-3,4-dihydroxytetrahydrofuran-2-yl)methoxy)methyl)phosphonic acid], the IC50 is 100 nM.

With `C#C[C@@]1(O)[C@@H](COC(Cc2ccccc2)(C(=O)O)C(=O)O)O[C@@H](n2cnc3c(NCC4CC4)nc(Cl)nc32)[C@@H]1O` [Example 92, 2-benzyl-2-(((2R,3S,4R,5R)-5-(2-chloro-6-((cyclopropylmethyl)amino)-9H-purin-9-yl)-3-ethynyl-3,4-dihydroxytetrahydrofuran-2-yl)methoxy)malonic acid], the IC50 amounted to 0.8 nM.

Source of the values: patent US11078228B2, “Ectonucleotidase inhibitors and methods of use thereof” (Calithera Biosciences, Inc., priority 2018, dated 2021).
